Measured values taken from patent publication US5420335A, “Parenteral nutrients based on watersoluble glycerol bisacetoacetates” (priority 1993, dated 1995).
Where “and” joins values, the source holds several entries; their conditions need not be identical. Equal values may be shown once. Entries after “also recorded” stand apart in the source; their conditions may differ.

What was measured:
Format in all cases: in vivo, rat (male Sprague-Dawley)
[1] = Nitrogen balance (difference between intake and urinary output); details: for nitrogen balance: 7 days; for Nitrogen Balance, Difference Between Intake and Output: Table 3, Example 2
Method: (§1) Water was available ad libitum at all times.
(§2) The vein was then ligated dorsally to the catheter. […] Body weights were measured daily.
(§3) Infusate volume, oral food intake, body weight and urinary volume and total nitrogen were monitored daily for each rat. Infusate volume and food intake were determined by weighing the appropriate container at the start and end of each 24 hr. period. Measurements were recorded between 9 and 10 AM each day. At the end of the 7th day, rats were sacrificed, and blood and liver were harvested. Plasma was separated for measurement of free fatty acids, glucose, and ketone bodies. Liver was weighed and a sample was fixed in buffered formalin for gross histology.
(§4) The data were analyzed for significance by the one-way analysis of variance with repeated measures and comparing the effect of dietary treatment on each day. […] The null hypothesis was concluded invalid if p≤0.05. The analysis of variance was computed on a SAS statistical package.
FIG. 3 illustrates the difference between oral intake and urinary nitrogen output which is termed nitrogen balance. It is representative of nitrogen balance because urinary nitrogen is the major route for body loss of nitrogen.
The experimental compound contains 8% nitrogen. With an infusion of 5.6 grams/day, infused nitrogen would provide approximately 450 mg more than that listed in the data tables. The final balance figures includes this number which is calculated based on the actual daily infusion rate for each rat.

[2] = Daily body weight of intravenously infused rats; details: for Daily Body Weight: Table 4, Example 2
Method: as §1, §2, §3, §4
This compound has an estimated energy density of 4.86 kcal/gram based on thermodynamic data from similar compounds.

[3] = Oral dietary nitrogen (food) intake of intravenously infused rats; details: Table 1, Example 2, average of 7 rats
[4] = Daily urinary nitrogen losses of intravenously infused rats; details: Table 2, Example 2
Method: as §1, §2, §3
The data were analyzed for significance by the one-way analysis of variance with repeated measures and comparing the effect of dietary treatment on each day. […] The null hypothesis was concluded invalid if p≤0.05. The analysis of variance was computed on a SAS statistical package. […]

[5] = day 1, individual rat, listed as BISACETOACETYLGLYCEROL
[6] = day 2, individual rat, listed as BISACETOACETYLGLYCEROL
[7] = day 3, individual rat, listed as BISACETOACETYLGLYCEROL
[8] = day 4, individual rat, listed as BISACETOACETYLGLYCEROL
[9] = day 5, individual rat, listed as BISACETOACETYLGLYCEROL
[10] = day 6, individual rat, listed as BISACETOACETYLGLYCEROL
[11] = day 7, individual rat, listed as BISACETOACETYLGLYCEROL

In the case of Glycerol bis-acetoacetate [Compound 1], the nitrogen balance ([1]; Example 2) was “around +200 mg/day”, the “Nitrogen Balance, Difference Between Intake and Output” value ([1]; day 1, average of 7 rats) was 50 MG N and the “Nitrogen Balance, Difference Between Intake and Output” value [1, 5] was 2.23 MG N and -125.18 MG N and -49.12 MG N and 488.57 MG N and 67.86 MG N and -8.55 MG N and -26.62 MG N. For the same substance, the “Nitrogen Balance, Difference Between Intake and Output” value ([1]; day 2, average of 7 rats) was 141 MG N, the “Nitrogen Balance, Difference Between Intake and Output” value [1, 6] was 26.38 MG N and 170.06 MG N and 345.48 MG N and 260.22 MG N and 157.23 MG N and 36.89 MG N and the “Nitrogen Balance, Difference Between Intake and Output” value ([1]; day 3, average of 7 rats) was 271 MG N. For the same substance, the “Nitrogen Balance, Difference Between Intake and Output” value [1, 7] was 120.74 MG N and 489.26 MG N and 42.31 MG N and 282.92 MG N and 469.39 MG N and 333.63 MG N and 158.48 MG N, the “Nitrogen Balance, Difference Between Intake and Output” value ([1]; day 4, average of 7 rats) was 281 MG N and the “Nitrogen Balance, Difference Between Intake and Output” value [1, 8] was 376.48 MG N and 384.64 MG N and 31.9 MG N and 385.32 MG N and 274.87 MG N and 292.37 MG N and 219.89 MG N. The “Nitrogen Balance, Difference Between Intake and Output” value ([1]; day 5, average of 7 rats) was 204 MG N, the “Nitrogen Balance, Difference Between Intake and Output” value [1, 9] was 269.49 MG N and 269.3 MG N and -24.36 MG N and 244.06 MG N and 343.8 MG N and 171.97 MG N and 153.78 MG N and the “Nitrogen Balance, Difference Between Intake and Output” value ([1]; day 6, average of 7 rats) was 166 MG N. The “Nitrogen Balance, Difference Between Intake and Output” value [1, 10] was 256.54 MG N and 38.47 MG N and 48.05 MG N and 240.21 MG N and 246.31 MG N and 230.17 MG N and 103.93 MG N, the “Nitrogen Balance, Difference Between Intake and Output” value ([1]; day 7, average of 7 rats) was 170 MG N and the “Nitrogen Balance, Difference Between Intake and Output” value [1, 11] was 184.74 MG N and 68.22 MG N and -1.58 MG N and 228.45 MG N and 375.2 MG N and 270.39 MG N and 65.18 MG N. The nitrogen balance ([1]; in words) was “positive nitrogen balances; also recorded: better growth and nitrogen retention”, the “Daily Body Weight” value ([2]; day 0, average of 7 rats) was 262 Grams and the “Daily Body Weight” value ([2]; day 0, individual rat, listed as BISACETOACETYLGLYCEROL) was 282 Grams and 278 Grams and 233 Grams and 283 Grams and 268 Grams and 244 Grams. The “Daily Body Weight” value ([2]; day 1, average of 7 rats) was 268 Grams, the “Daily Body Weight” value [2, 5] was 311 Grams and 290 Grams and 230 Grams and 284 Grams and 268 Grams and 249 Grams and 241 Grams and the “Daily Body Weight” value ([2]; day 2, average of 7 rats) was 268 Grams. For the same substance, the “Daily Body Weight” value [2, 6] was 273 Grams and 289 Grams and 232 Grams and 297 Grams and 279 Grams and 249 Grams and 256 Grams, the “Daily Body Weight” value ([2]; day 3, average of 7 rats) was 273 Grams and the “Daily Body Weight” value [2, 7] was 278 Grams and 286 Grams and 258 Grams and 292 Grams and 256 Grams and 263 Grams. The “Daily Body Weight” value ([2]; day 4, average of 7 rats) was 271 Grams, the “Daily Body Weight” value [2, 8] was 265 Grams and 284 Grams and 226 Grams and 302 Grams and 280 Grams and 262 Grams and 276 Grams and the “Daily Body Weight” value ([2]; day 5, average of 7 rats) was 276 Grams. The “Daily Body Weight” value [2, 9] was 261 Grams and 276 Grams and 234 Grams and 306 Grams and 285 Grams and 293 Grams and 277 Grams, the “Daily Body Weight” value ([2]; day 6, average of 7 rats) was 269 Grams and the “Daily Body Weight” value [2, 10] was 253 Grams and 261 Grams and 252 Grams and 310 Grams and 281 Grams and 269 Grams and 260 Grams. For the same substance, the “Daily Body Weight” value ([2]; day 7, average of 7 rats) was 266 Grams, the “Daily Body Weight” value [2, 11] was 249 Grams and 261 Grams and 253 Grams and 307 Grams and 276 Grams and 273 Grams and 245 Grams and the “change in body weight” value ([2]; in words, 7 days) was “gained weight; also recorded: body weight changes which were consistent with nitrogen balance data; also recorded: better growth”. For the same substance, the “Dietary Nitrogen Intake” value ([3]; day 1) was 216 MG N, the “Dietary Nitrogen Intake” value ([3]; day 2) was 333 MG N and the “Dietary Nitrogen Intake” value ([3]; day 3) was 408 MG N. The “Dietary Nitrogen Intake” value ([3]; day 4) was 454 MG N, the “Dietary Nitrogen Intake” value ([3]; day 5) was 419 MG N and the “Dietary Nitrogen Intake” value ([3]; day 7) was 389 MG N. The “Urinary Nitrogen” value ([4]; day 1, average of 7 rats) was 166 mg, the “Urinary Nitrogen” value [4, 5] was 116.21 mg and 250.2 mg and 187.3 mg and 123.37 mg and 182.18 mg and 159.89 mg and 145.06 mg and the “Urinary Nitrogen” value ([4]; day 2, average of 7 rats) was 192 mg.
